Reference: article PMC8430629, “Anti-Cancer Effects of Cyclic Peptide ALOS4 in a Human Melanoma Mouse Model” (International Journal of Molecular Sciences, 2021)
Where a SMILES comes first, the peptide text is derived from it.

Columns and labels:
ICR mice [1] = assay: Plasma biochemistry after single IV dose; format: in vivo; settings: 24 h, mean, n = 5; for Total Bilirubin: normal range 0.16–0.32; for Creatinine: normal range 0.2–0.4; for Globulin: normal range 1.4–2.0; for Alb: normal range 3.3–4.0; for TP: normal range 4.7–5.8; for Phosphorus: normal range 6.4–11.3; for Calcium: normal range 9.8–10.8; for Urea: normal range 39–62; for Cholesterol: normal range 56–133; for Glucose: normal range 169–282
Method: (§1) ICR mice were treated with single IV injections of ALOS4 (30, 90, or 180 mg/kg) and blood samples were collected at 24 h post-injection to EDTA and serum tubes. Complete blood cell count (CBC) and blood chemistry analyses were performed for saline and ALOS4 treatment groups at a certified animal laboratory (Herzliya Medical Center, Herzliya, Israel).

[2] = Acid/base and temperature stability; format: physicochemical; settings: 10 µM in saline, pH 3.4, 4.4, 5.4, 6.4, 7.4, 9.4; 4, 25, 37 °C; 1 or 24 h; polypropylene tubes, LC-MS, n = 3
Method: (§2) Adhesiveness to inert materials was measured for ALOS4 0.9% NaCl(aq) solution in concentrations of 1, 3 10, 30, or 100 µM and incubated in standard laboratory polypropylene microtubes for 60 min at room temperature. Solutions were transferred to either polypropylene LC vials or borosilicate glass LC vials. Optimal formulation stability of ALOS4 was analyzed in either saline solution (0.9% NaCl) or saline solution containing 0.1% tween 80 (polysorbate; Sigma-Aldrich, Cat#P1754, Darmstadt, Germany) at concentrations of 0.5, 5, 50, 500, or 5000 pmol/µL. Solutions were incubated in standard polypropylene tubes for 60 min at room temperature. Acid/base stability was measured for ALOS4 formulated in saline at a concentration of 10 µM and incubated for 1 or 24 h at 3.4, 4.4, 5.4, 6.4, 7.4, or 9.4 pH at temperatures of 4, 25, or 37 °C. Recovery of ALOS4 following these materials assays was assessed by LC-MS.

ICR mice [3] = assay: Repeated IV dose toxicity assessment in cancer-free ICR mice
Method: Acute single or repeated doses of ALOS4 at 10, 30, 90, 180, or 360 mg/kg were administered intravenously to uninoculated (nominally cancer-free) ICR mice. Body weight, rectal temperature, and survival were evaluated for 14 days following injections. Mice were also evaluated for locomotory and anxiety-like behaviors (open-field and EPM) on treatment day 14.

ICR mice [4] = assay: Complete blood count after single IV dose; format: in vivo; settings: for RBC / HGB / MCH / MCHC / Hematocrit / MCV / Platelets / WBC: mean, n = 5; for RBC: normal range 7.31–10.03; for HGB: normal range 13.1–16.2; for MCH: normal range 15–18; for MCHC: normal range 33.7–36.4; for Hematocrit: normal range 36.8–48.7; for MCV: normal range 46.0–50.9; for Platelets: normal range 674–1675; for WBC: blood 24 h post-injection, normal range 6.5–24.5
Method: as §1

ICR mice [5] = assay: Open field test; format: in vivo
Method: To evaluate the effect of ALOS4 on mouse locomotor activity, we used the open field (OF) behavioral test. This assay consists of an arena (30 × 40 cm) with no grid markings and uses an infrared imaging system. […] Each mouse was placed individually in the center of the arena and evaluated for 6 min. Arena center dwell time versus arena border dwell time, as well as total traveled distance, were recorded.

[6] = Formulation stability, saline vs saline with 0.1% Tween-80; format: physicochemical; settings: 0.5-5000 pmol/µL, 60 min, room temperature (25 °C), polypropylene tubes, LC-MS, n = 3
Method: as §2

**Q.** What does the source list for CC(C)C[C@@H]1NC(=O)[C@H](CO)NC(=O)CNC(=O)[C@H](C)NC(=O)[C@H](CO)NC(=O)[C@H](CO)NC(=O)[C@@H](N)CSSC[C@@H](C(=O)O)NC(=O)[C@H](Cc2ccccc2)NC1=O [ALOS4, H-cycl(Cys-Ser-Ser-Ala-Gly-Ser-Leu-Phe-Cys)-OH] (HELM PEPTIDE1{C.S.S.A.G.S.L.F.C}$PEPTIDE1,PEPTIDE1,1:R3-9:R3$$$V2.0)?
**A.** Total Bilirubin (ICR mice [1]; single IV 30 mg/kg): 0.11 ± 0.02 mg/dL; Creatinine (ICR mice [1]; single IV 30 mg/kg): 0.26 ± 0.014 mg/dL; Globulin (ICR mice [1]; single IV 30 mg/kg): 1.87 ± 0.07 g/dL; Alb (ICR mice [1]; single IV 30 mg/kg): 4.3 ± 0.14 g/dL; TP (ICR mice [1]; single IV 30 mg/kg): 6.17 ± 0.18 g/dL; Phosphorus (ICR mice [1]; single IV 30 mg/kg): 8.6 ± 0.56 mg/dL; Calcium (ICR mice [1]; single IV 30 mg/kg): 10.29 ± 0.11 mg/dL; Urea (ICR mice [1]; single IV 30 mg/kg): 46.08 ± 1.7 mg/dL; Cholesterol (ICR mice [1]; single IV 30 mg/kg): 108.2 ± 9.5 mg/dL; Glucose (ICR mice [1]; single IV 30 mg/kg): 169.8 ± 6.9 mg/dL; Total Bilirubin (ICR mice [1]; single IV 90 mg/kg): 0.14 ± 0.02 mg/dL; Creatinine (ICR mice [1]; single IV 90 mg/kg): 0.25 ± 0.06 mg/dL; Globulin (ICR mice [1]; single IV 90 mg/kg): 2.02 ± 0.07 g/dL; Alb (ICR mice [1]; single IV 90 mg/kg): 4.3 ± 0.06 g/dL; TP (ICR mice [1]; single IV 90 mg/kg): 6.32 ± 0.13 g/dL; Phosphorus (ICR mice [1]; single IV 90 mg/kg): 9.53 ± 0.4 mg/dL; Calcium (ICR mice [1]; single IV 90 mg/kg): 10.38 ± 0.29 mg/dL; Urea (ICR mice [1]; single IV 90 mg/kg): 48.23 ± 3.2 mg/dL; Cholesterol (ICR mice [1]; single IV 90 mg/kg): 142.25 ± 13.7 mg/dL; Glucose (ICR mice [1]; single IV 90 mg/kg): 170.75 ± 10.7 mg/dL; Total Bilirubin (ICR mice [1]; single IV 180 mg/kg): 0.11 ± 0.03 mg/dL; Creatinine (ICR mice [1]; single IV 180 mg/kg): 0.27 ± 0.02 mg/dL; Globulin (ICR mice [1]; single IV 180 mg/kg): 1.59 ± 0.4 g/dL; Alb (ICR mice [1]; single IV 180 mg/kg): 4.36 ± 0.024 g/dL; TP (ICR mice [1]; single IV 180 mg/kg): 6.28 ± 0.09 g/dL; Phosphorus (ICR mice [1]; single IV 180 mg/kg): 8.44 ± 0.75 mg/dL; Calcium (ICR mice [1]; single IV 180 mg/kg): 10.42 ± 0.1 mg/dL; Urea (ICR mice [1]; single IV 180 mg/kg): 46.02 ± 3.9 mg/dL; Cholesterol (ICR mice [1]; single IV 180 mg/kg): 141.8 ± 9.1 mg/dL; Glucose (ICR mice [1]; single IV 180 mg/kg): 183.2 ± 14.3 mg/dL; stability (recoverability) [2]: 90–100%; weight-gain (ICR mice [3]; IV every other day over 21 days (ten doses), 10, 30, 90, 180, 360 mg/kg, n = 5, vs control): no alterations in weight-gain; body temperature (ICR mice [3]; IV every other day over 21 days, 10-360 mg/kg, rectal, 30 min after injection, n = 5): no alterations; necropsy assessment for organ damage (ICR mice [3]; histology of liver, spleen, kidney, lungs, brain, repeated IV 10-360 mg/kg): did not reveal any overt signs of tissue damage or inflammation; 21-day survival (ICR mice [3]; maximum tested repeated IV dose 360 mg/kg, n = 5): 100%; clinical signs (ICR mice [3]; repeated IV 10-360 mg/kg): No adverse overt clinical signs were observed; decrease in WBC count (ICR mice [4]; ICR mice, single IV 180 mg/kg, 24 h): 40%; RBC (ICR mice [4]; single IV 30 mg/kg, 24 h): 9.16 ± 0.3 10^6/µL; HGB (ICR mice [4]; single IV 30 mg/kg, 24 h): 14.3 ± 0.6 g/dL; MCH (ICR mice [4]; single IV 30 mg/kg, 24 h): 15.6 ± 0.2 pg; MCHC (ICR mice [4]; single IV 30 mg/kg, 24 h): 32.54 ± 0.23 g/dL; Hematocrit (ICR mice [4]; single IV 30 mg/kg, 24 h): 43.96 ± 1.9%; MCV (ICR mice [4]; single IV 30 mg/kg, 24 h): 47.96 ± 0.6 fL; Platelets (ICR mice [4]; single IV 30 mg/kg, 24 h): 582.4 ± 132 10^3/µL; WBC (ICR mice [4]; single IV 30 mg/kg): 4.51 ± 1.3 10^3/µL; RBC (ICR mice [4]; single IV 90 mg/kg, 24 h): 9.78 ± 0.3 10^6/µL; HGB (ICR mice [4]; single IV 90 mg/kg, 24 h): 15.42 ± 0.5 g/dL; MCH (ICR mice [4]; single IV 90 mg/kg, 24 h): 15.76 ± 0.15 pg; MCHC (ICR mice [4]; single IV 90 mg/kg, 24 h): 32.2 ± 0.4 g/dL; Hematocrit (ICR mice [4]; single IV 90 mg/kg, 24 h): 47.88 ± 1.1%; MCV (ICR mice [4]; single IV 90 mg/kg, 24 h): 48.96 ± 0.24 fL; Platelets (ICR mice [4]; single IV 90 mg/kg, 24 h): 770.2 ± 189 10^3/µL; WBC (ICR mice [4]; single IV 90 mg/kg): 6.07 ± 1.2 10^3/µL; RBC (ICR mice [4]; single IV 180 mg/kg, 24 h): 8.02 ± 0.6 10^6/µL; HGB (ICR mice [4]; single IV 180 mg/kg, 24 h): 13.2 ± 1.04 g/dL; MCH (ICR mice [4]; single IV 180 mg/kg, 24 h): 16.42 ± 0.2 pg; MCHC (ICR mice [4]; single IV 180 mg/kg, 24 h): 32.88 ± 0.4 g/dL; Hematocrit (ICR mice [4]; single IV 180 mg/kg, 24 h): 40.12 ± 3.15%; MCV (ICR mice [4]; single IV 180 mg/kg, 24 h): 49.96 ± 0.32 fL; Platelets (ICR mice [4]; single IV 180 mg/kg, 24 h): 661.8 ± 160.5 10^3/µL; WBC (ICR mice [4]; single IV 180 mg/kg): 3.2 ± 0.06 10^3/µL; total traveled distance, open field (ICR mice [5]; IV acute single dose 180 mg/kg, n = 5, Bonferroni p = 0.0329): only an exception for total traveled distance; locomotor activity, open field (ICR mice [5]; IV acute single dose 30, 90, 180 mg/kg, n = 5, central arena dwell time): did not affect locomotor activity in general; reduction of peptide stability in saline containing 0.1% Tween-80 vs 0.9% NaCl only [6]: 1.2 fold
